The values that follow come from US9199962B2, “Substituted azaheterocycles for the treatment of cancer” (Merck Patent GmbH, priority 2011, dated 2015).

T1 sequence (Q05397 376-1052): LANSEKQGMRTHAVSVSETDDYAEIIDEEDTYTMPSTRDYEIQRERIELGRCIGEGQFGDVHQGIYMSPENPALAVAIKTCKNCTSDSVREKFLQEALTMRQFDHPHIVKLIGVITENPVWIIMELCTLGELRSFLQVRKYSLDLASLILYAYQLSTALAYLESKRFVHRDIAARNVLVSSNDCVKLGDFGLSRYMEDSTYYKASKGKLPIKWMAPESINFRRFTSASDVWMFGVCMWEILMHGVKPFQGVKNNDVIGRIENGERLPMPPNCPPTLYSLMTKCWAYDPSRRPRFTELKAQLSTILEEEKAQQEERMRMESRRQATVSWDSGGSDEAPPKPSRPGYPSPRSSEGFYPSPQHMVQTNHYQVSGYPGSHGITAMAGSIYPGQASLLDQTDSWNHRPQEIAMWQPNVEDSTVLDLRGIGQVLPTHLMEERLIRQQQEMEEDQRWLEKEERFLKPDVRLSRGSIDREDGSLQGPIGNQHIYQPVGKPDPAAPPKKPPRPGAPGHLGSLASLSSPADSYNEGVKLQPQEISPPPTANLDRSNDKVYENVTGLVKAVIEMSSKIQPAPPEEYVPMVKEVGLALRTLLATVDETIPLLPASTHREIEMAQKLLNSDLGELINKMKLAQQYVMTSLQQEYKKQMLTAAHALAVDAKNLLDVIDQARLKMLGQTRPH

The first assay addresses T1, GST-FAK (N-terminal GST fusion with truncated human FAK (376-1052 (end) amino acids)) (Homo sapiens, UniProt Q05397).
T1 construct: truncated human FAK (376-1052 (end) amino acids)
Kind of assay: Biochemical enzyme assay for FAK activity (Caliper LC3000 mobility shift). Conditions: Table 1; 100 uM ATP; read-out: FAK IC50. On the procedure: 1. Biochemical Enzyme Assays for FAK Activity
The FAK assays described here are performed on two Caliper Life Sciences systems, the LC3000 and the EZ Reader II. These provide data on enzyme activity via measurement of the relative amounts of phosphorylated or unphosphorylated fluorescently labelled substrate peptide at the end of an enzymatic reaction. These different states of peptide are resolved by applying a potential difference across the sample. The presence of the charged phosphate group on the product (as opposed to the substrate) causes different peptide mobility between the two peptides. This is visualized by excitation of the fluorescent label on the substrate and product peptides and represented as peaks within the analysis software.
In order to measure inhibitor activity of FAK, inhibitors in the Caliper Life Sciences LC3000, a TTP Mosquito liquid handling instrument is used to place 0.25 ul of the appropriate concentration of inhibitor in 100% DMSO (for a dose response curve calculation) into each well of a 384-well plate. To this reaction components are added to a final volume of 25 ul: • 0.067 ng/ul GST-FAK (N-terminal GST fusion with truncated human FAK (376-1052 (end) amino acids)) • 100 uM ATP • 1 mM DTT • 1 mM MgCl2 • 1 uM substrate peptide (sequence FITC-KGWMEDYDYVHLQGKK-(CONH2)SEQ ID NO: 1)) • 1 mM FERM peptide (sequence NH2-GATQSFIIR-COOH (SEQ ID NO: 2)) • 100 mM HEPES pH 7.5 • 0.015% Brij-35
The reaction is incubated for 90 min at 25 C, and then stopped by the addition of 70 ul of Stop buffer (100 mM HEPES pH 7.5, 0.015% Brij-35, 10 mM EDTA).
The plate is read on a Caliper LC 3000 in an Off-Chip mobility shift assay format, using the following parameters for a 12-sipper chip: screening pressure—1.9 psi, upstream voltage—3000, downstream voltage—700. These conditions cause unphosphorylated substrate and phosphorylated product peptide to resolve as separate peaks allowing direct measurement of percentage of conversion of substrate to product. The percent conversion can be plotted against concentration of inhibitor to produce a sigmoid dose response curve, from which an IC50 can be calculated using XLFit for Microsoft Excel.
Turning to `Fc1ccc(CNc2ccnc(-c3cncc(Cl)c3)n2)cc1` [Compound 39, [2-(5-Chloro-pyridin-3-yl)-pyrimidin-4-yl]-(4-fluoro-benzyl)-amine], the IC50 was in the range of 100 to 1000 nM. On to `Clc1cncc(-c2nccc(NCC3CC3)n2)c1` [Compound 36, [2-(5-Chloro-pyridin-3-yl)-pyrimidin-4-yl]-cyclopropylmethyl-amine], for which the IC50 was 1000 to 10000 nM. Still for that read-out and setting: next, `Fc1ccccc1CNc1ccnc(-c2cncc(Cl)c2)n1` [Compound 38, [2-(5-Chloro-pyridin-3-yl)-pyrimidin-4-yl]-(2-fluoro-benzyl)-amine]: under 100 nM; `FC(F)(F)c1cncc(-c2nccc(NCc3cccc(Oc4cnccn4)c3)n2)c1` [Compound 27, [3-(Pyrazin-2-yloxy)-benzyl]-[2-(5-trifluoromethyl-pyridin-3-yl)-pyrimidin-4-yl]-amine]: over 10000 nM; `CC1(C)Cc2cccc(CNc3ccnc(-c4cncc(C(=O)N5CCOCC5)c4)n3)c2O1` [Compound 40, (5-{4-[(2,2-Dimethyl-2,3-dihydro-benzofuran-7-ylmethyl)-amino]-pyrimidin-2-yl}-pyridin-3-yl)-morpholin-4-yl-methanone]: over 10000 nM. Regarding `O=C(c1cncc(-c2nccc(NCc3ccc(Cl)cc3F)n2)c1)N1CCOCC1` [Compound 22, {5-[4-(4-Chloro-2-fluoro-benzylamino)-pyrimidin-2-yl]-pyridin-3-yl}-morpholin-4-yl-methanone], the IC50 is over 10000 nM.

The assay is the same for the next values; noted with them: Table 2; 100 uM ATP; read-out: FAK IC50.
`Fc1ccc(CNc2cc(NC3CCNCC3)nc(-c3cncc(C(F)(F)F)c3)n2)c(F)c1` [Compound 66, N-(2,4-Difluoro-benzyl)-N′-piperidin-4-yl-2-(5-trifluoromethyl-pyridin-3-yl)-pyrimidine-4,6-diamine]: the concentration for half-maximal inhibition (IC50) was 100 to 1000 nM.

Still in this assay, the particulars now being: Table 3; 100 uM ATP; read-out: FAK IC50.
For the compound `Nc1ncccc1-c1cc(NCc2ccccc2C(F)(F)F)ccn1` [Compound 113, N4-[2-(trifluoromethyl)benzyl]-2,3′-bipyridine-2′,4-diamine], the IC50 lay in the range of 1000 to 10000 nM. Same read-out and setting: the value for `Nc1ncc(C(F)(F)F)cc1-c1nccc(NCc2ccccc2C(F)(F)F)n1` [Compound 136, 2-[2-Amino-5-(trifluoromethyl)pyridin-3-yl]-N-[2-(trifluoromethyl)benzyl]pyrimidin-4-amine] was under 100 nM; that for `Nc1ncccc1-c1cccc(NCc2ccccc2C(F)(F)F)c1` [Compound 104, 3-(3-{[2-(Trifluoromethyl)benzyl]amino}phenyl)pyridin-2-amine] was over 10000 nM; that for `Nc1ncccc1-c1nccc(NCc2cccnc2C(F)(F)F)n1` [Compound 137, 2-(2-Aminopyridin-3-yl)-N-{[2-(trifluoromethyl)pyridin-3-yl]methyl}pyrimidin-4-amine] was 1000 to 10000 nM. With `Fc1ccccc1CNc1ccnc(-c2cccnc2)n1` [Compound 93, N-(2-Fluorobenzyl)-2-pyridin-3-ylpyrimidin-4-amine], the IC50 is 100 to 1000 nM.

In the case of `Cc1ccc(CNc2ccnc(-c3cccnc3N)n2)cc1` [Compound 92, 2-(2-Aminopyridin-3-yl)-N-(4-methylbenzyl)pyrimidin-4-amine], the half-maximal inhibitory concentration (IC50) is over 10000 nM.

As to `Nc1ncccc1-c1nccc(NCc2ccc(F)cc2)n1` [Compound 80, 2-(2-Aminopyridin-3-yl)-N-(4-fluorobenzyl)pyrimidin-4-amine], the IC50 fell in the range of 1000 to 10000 nM.

As to `CN(c1ncccc1CNc1ccnc(-c2cccnc2N)n1)S(C)(=O)=O` [Compound 88, N-[3-({[2-(2-Aminopyridin-3-yl)pyrimidin-4-yl]amino}methyl)pyridin-2-yl]-N-methylmethane-sulfonamide], the IC50 was over 10000 nM. Same read-out and setting: the value for `Nc1ncccc1-c1nccc(NCc2ccccc2OC(F)(F)F)n1` [Compound 84, 2-(2-Aminopyridin-3-yl)-N-[2-(trifluoromethoxy)benzyl]pyrimidin-4-amine] was 1000 to 10000 nM.

Still in this assay, the particulars now being: Table 5; 100 uM ATP; read-out: FAK IC50.
In the case of `CN(C)C(=O)c1ccccc1Nc1ccnc(-c2cncc(C(F)(F)F)c2)n1` [Compound 255, N,N-Dimethyl-2-[2-(5-trifluoromethyl-pyridin-3-yl)-pyrimidin-4-ylamino]-benzamide], the IC50 was over 10000 nM.

`Cc1cc(F)ncc1-c1nccc(NCc2ccccc2F)n1` [Compound 206, (2-Fluoro-benzyl)-[2-(6-fluoro-4-methyl-pyridin-3-yl)-pyrimidin-4-yl]-amine]: the IC50 is over 10000 nM. Still for that read-out and setting: the value for `CC(NC(=O)c1cc(NCc2ccc(F)cc2F)nc(-c2cncc(C(F)(F)F)c2)n1)C(N)=O` (centres unmarked) [Compound 263, 6-(2,4-Difluoro-benzylamino)-2-(5-trifluoromethyl-pyridin-3-yl)-pyrimidine-4-carboxylic acid (1-carbamoyl-ethyl)-amide] was under 100 nM; that for `Fc1ccc(CNc2nc(-c3cncc(C(F)(F)F)c3)nc3[nH]cnc23)c(F)c1` [Compound 237, (2,4-Difluoro-benzyl)-[2-(5-trifluoromethyl-pyridin-3-yl)-9H-purin-6-yl]-amine] was 100 to 1000 nM. Same read-out and setting: next, `CC(=O)NCCNC(=O)c1cc(NCc2ncccc2F)nc(-c2cncc(C(F)(F)F)c2)n1` [Compound 189, 6-[(3-Fluoro-pyridin-2-ylmethyl)-amino]-2-(5-trifluoromethyl-pyridin-3-yl)-pyrimidine-4-carboxylic acid (2-acetylamino-ethyl)-amide]: 100 to 1000 nM.

For the compound `Cn1cc(NC(=O)c2cc(NCc3ccc(F)cc3F)nc(-c3cncc(C(F)(F)F)c3)n2)cn1` [Compound 246, 6-(2,4-Difluoro-benzylamino)-2-(5-trifluoromethyl-pyridin-3-yl)-pyrimidine-4-carboxylic acid (1-methyl-1H-pyrazol-4-yl)-amide], the IC50 lay within 100 to 1000 nM. `Cc1ccccc1CNc1ccnc(-c2cncc(C(F)(F)F)c2)n1` [Compound 186, (2-Methyl-benzyl)-[2-(5-trifluoromethyl-pyridin-3-yl)-pyrimidin-4-yl]-amine]: the IC50 lay within 100 to 1000 nM. As to `COc1cncc(-c2nccc(NCc3ccccn3)n2)c1` [Compound 228, [2-(5-Methoxy-pyridin-3-yl)-pyrimidin-4-yl]-pyridin-2-ylmethyl-amine], the IC50 was 100 to 1000 nM. Still for that read-out and setting: next, `CNC(=O)C(Nc1ccnc(-c2cncc(C(F)(F)F)c2)n1)c1ccccc1` (centres unmarked) [Compound 268, N-Methyl-2-phenyl-2-[2-(5-trifluoromethyl-pyridin-3-yl)-pyrimidin-4-ylamino]-acetamide]: 1000 to 10000 nM; `COc1ncccc1NC(=O)c1cc(NCc2ccc(F)cc2F)nc(-c2cncc(C(F)(F)F)c2)n1` [Compound 233, 6-(2,4-Difluoro-benzylamino)-2-(5-trifluoromethyl-pyridin-3-yl)-pyrimidine-4-carboxylic acid (2-methoxy-pyridin-3-yl)-amide]: 100 to 1000 nM; `C[C@@H](Nc1ccnc(-c2cncc(C(F)(F)F)c2)n1)c1ccc(F)cc1` [Compound 270, [(R)-1-(4-Fluoro-phenyl)-ethyl]-[2-(5-trifluoromethyl-pyridin-3-yl)-pyrimidin-4-yl]-amine]: 100 to 1000 nM. With `COc1cncc(-c2nccc(NCc3cc[nH]n3)n2)c1` [Compound 218, [2-(5-Methoxy-pyridin-3-yl)-pyrimidin-4-yl]-(1H-pyrazol-3-ylmethyl)-amine], the IC50 was 1000 to 10000 nM. As for `COc1cncc(-c2nccc(NCCc3cccc(C(F)(F)F)c3)n2)c1` [Compound 194, [2-(5-Methoxy-pyridin-3-yl)-pyrimidin-4-yl]-[2-(3-trifluoromethyl-phenyl)-ethyl]-amine], the IC50 was over 10000 nM.
